# According to patent US8044079B2, “Substituted oxindole derivatives, medicaments containing said derivatives and use thereof” (Abbott GmbH & Co. KG, priority 2005, dated 2011):
# Target: T1, human vasopressin V1b receptor (Homo sapiens, UniProt P47901)
# T1 construct: expressed in transfected cells; host or cells: CHO-K1 (cell line hV1b_3H2_CHO), membrane preparation
# T1 sequence (P47901 1-424): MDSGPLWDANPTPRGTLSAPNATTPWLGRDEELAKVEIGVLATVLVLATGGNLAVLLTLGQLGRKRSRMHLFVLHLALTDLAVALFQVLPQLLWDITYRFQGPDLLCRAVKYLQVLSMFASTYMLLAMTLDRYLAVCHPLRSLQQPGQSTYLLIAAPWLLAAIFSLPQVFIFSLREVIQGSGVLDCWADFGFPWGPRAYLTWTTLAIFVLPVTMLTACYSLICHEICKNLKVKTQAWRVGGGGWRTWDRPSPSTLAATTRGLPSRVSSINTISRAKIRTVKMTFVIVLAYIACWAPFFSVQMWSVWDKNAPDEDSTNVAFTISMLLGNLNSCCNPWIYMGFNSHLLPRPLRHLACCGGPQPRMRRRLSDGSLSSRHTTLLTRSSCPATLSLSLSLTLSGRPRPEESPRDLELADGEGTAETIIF
# Test: Vasopressin V1b receptor binding test
# Details: membranes of CHO-K1 cells with human V1b receptor, displacement of 1.5 nM 3H-AVP; for compounds with more than one stereogenic center the diastereomer with greater affinity
# Description: Vasopressin V1b Receptor Binding Test:
# The test substances were dissolved at a concentration of 10^−2 M in DMSO, and were further diluted to 5×10^−4 M to 5×10^−9 M in DMSO. This DMSO predilution series was diluted 1:10 with test buffer. In the test assay the substance concentration was further diluted to 1:5 (2% DMSO in the assay).
# The membrane pellet was homogenized again as described and centrifuged, and was then taken up in 50 mM tris-HCl at pH 7.4, homogenized, and frozen in aliquots at −190° C. and stored in liquid nitrogen.
# The incubation buffer was 50 mM tris, 10 mM MgCl2, and 0.1% BSA at pH 7.4. […] The nonspecific binding was determined using 1 μM AVP (Bachem #H1780). All determinations were performed in triplicate. After incubation (60 minutes at room temperature), the free radioligand was filtered off by vacuum filtration (Skatron 7000 cell harvester) through Wathman GF/B fiberglass filter mats, and the filters were transferred to scintillation vessels. The liquid scintillation measurement was conducted in a Model 2000 or 2200CA TriCarb unit (Packard). The measured cpm was converted to dpm using a standard quench series.
# The binding parameters were calculated by nonlinear regression in SAS.
# The affinities of the compounds according to the invention for human vasopressin receptor V1b were measured according to the above test, and the affinity constants (Ki) were determined.
row,Compound,Ki
1,"5-Chloro-1-(4-cyanobenzenesulfonyl)-3-{4-[(2-hydroxyethylamino)methyl]-2-methoxyphenyl}-3-((2S,4R)-4-hydroxy-2-oxazol-2-yl-pyrrolidin-1-yl)-2,3-dihydroindol-2-one [Example 196]",10 to 100 nM
2,"COc1ccc(S(=O)(=O)N2C(=O)C(c3cc(CN4CCN(C)CC4)ccc3OC)(N3CCC[C@H]3c3ncco3)c3cc(Cl)ccc32)cc1 (single isomer, unassigned) [Example 1]",< 10 nM
3,"COc1ccc(S(=O)(=O)N2C(=O)C(c3cc(CO)ccc3OC)(N3CCC[C@H]3c3ncco3)c3cc(Cl)ccc32)cc1 (stereo partly drawn) [Example 2, 5-Chloro-3-(5-hydroxymethyl-2-methoxyphenyl)-1-(4-methoxybenzenesulfonyl)-3-((S)-2-oxazol-2-yl-pyrrolidin-1-yl)-1,3-dihydroindol-2-one]",10 to 100 nM
4,"CNCc1ccc(OC)c(C2(N3CCC[C@H]3c3ncco3)C(=O)N(S(=O)(=O)c3ccc(OC)cc3)c3ccc(Cl)cc32)c1 (stereo partly drawn) [Example 3, 5-Chloro-1-(4-methoxybenzenesulfonyl)-3-(2-methoxy-5-methylaminomethylphenyl)-3-((S)-2-oxazol-2-yl-pyrrolidin-1-yl)-1,3-dihydroindol-2-one]",< 10 nM
5,"COc1ccc(S(=O)(=O)N2C(=O)C(c3cc(CN(C)C)ccc3OC)(N3CCC[C@H]3c3ncco3)c3cc(Cl)ccc32)cc1 (stereo partly drawn) [Example 4, 5-Chloro-3-(5-dimethylaminomethyl-2-methoxyphenyl)-1-(4-methoxybenzenesulfonyl)-3-((S)-2-oxazol-2-yl-pyrrolidin-1-yl)-1,3-dihydroindol-2-one]",< 10 nM
6,"CCNCc1ccc(OC)c(C2(N3CCC[C@H]3c3ncco3)C(=O)N(S(=O)(=O)c3ccc(OC)cc3)c3ccc(Cl)cc32)c1 (stereo partly drawn) [Example 5, 5-Chloro-3-(5-ethylaminomethyl-2-methoxyphenyl)-1-(4-methoxybenzenesulfonyl)-3-((S)-2-oxazol-2-yl-pyrrolidin-1-yl)-1,3-dihydroindol-2-one]",< 10 nM
7,"CCN(C)Cc1ccc(OC)c(C2(N3CCC[C@H]3c3ncco3)C(=O)N(S(=O)(=O)c3ccc(OC)cc3)c3ccc(Cl)cc32)c1 (stereo partly drawn) [Example 6, 5-Chloro-3-{5-[(ethylmethylamino)methyl]-2-methoxyphenyl}-1-(4-methoxybenzenesulfonyl)-3-((S)-2-oxazol-2-yl-pyrrolidin-1-yl)-1,3-dihydroindol-2-one]",< 10 nM
8,"CCN(CC)Cc1ccc(OC)c(C2(N3CCC[C@H]3c3ncco3)C(=O)N(S(=O)(=O)c3ccc(OC)cc3)c3ccc(Cl)cc32)c1 (stereo partly drawn) [Example 7, 5-Chloro-3-(5-diethylaminomethyl-2-methoxyphenyl)-1-(4-methoxybenzenesulfonyl)-3-((S)-2-oxazol-2-yl-pyrrolidin-1-yl)-1,3-dihydroindol-2-one]",< 10 nM
9,"COc1ccc(S(=O)(=O)N2C(=O)C(c3cc(CNC(C)C)ccc3OC)(N3CCC[C@H]3c3ncco3)c3cc(Cl)ccc32)cc1 (stereo partly drawn) [Example 8, 5-Chloro-3-[5-(isopropylaminomethyl)-2-methoxyphenyl]-1-(4-methoxybenzenesulfonyl)-3-((S)-2-oxazol-2-yl-pyrrolidin-1-yl)-1,3-dihydroindol-2-one]",< 10 nM
10,"COc1ccc(S(=O)(=O)N2C(=O)C(c3cc(CN(C)C(C)C)ccc3OC)(N3CCC[C@H]3c3ncco3)c3cc(Cl)ccc32)cc1 (stereo partly drawn) [Example 9, 5-Chloro-3-{5-[(isopropylmethylamino)methyl]-2-methoxyphenyl}-1-(4-methoxybenzenesulfonyl)-3-((S)-2-oxazol-2-yl-pyrrolidin-1-yl)-1,3-dihydroindol-2-one]",< 10 nM
11,"COc1ccc(S(=O)(=O)N2C(=O)C(c3cc(CNCCO)ccc3OC)(N3CCC[C@H]3c3ncco3)c3cc(Cl)ccc32)cc1 (stereo partly drawn) [Example 10, 5-Chloro-3-{5-[(2-hydroxyethylamino)methyl]-2-methoxyphenyl}-1-(4-methoxybenzenesulfonyl)-3-((S)-2-oxazol-2-yl-pyrrolidin-1-yl)-1,3-dihydroindol-2-one]",< 10 nM
12,"COc1ccc(S(=O)(=O)N2C(=O)C(c3cc(CN4CCNCC4)ccc3OC)(N3CCC[C@H]3c3ncco3)c3cc(Cl)ccc32)cc1 (stereo partly drawn) [Example 11, 5-Chloro-1-(4-methoxybenzenesulfonyl)-3-(2-methoxy-5-piperazin-1-ylmethylphenyl)-3-((S)-2-oxazol-2-yl-pyrrolidin-1-yl)-1,3-dihydroindol-2-one]",< 10 nM

# Next, values leading:
row,Ki,Compound
1,< 10 nM,"COc1ccc(S(=O)(=O)N2C(=O)C(c3cc(CN4CCC4)ccc3OC)(N3CCC[C@H]3c3ncco3)c3cc(Cl)ccc32)cc1 (single isomer, unassigned) [Example 12]"
2,< 10 nM,"COc1ccc(S(=O)(=O)N2C(=O)C(c3cc(CN4CCN(C)CC4)ccc3OC)(N3C[C@H](O)C[C@H]3c3ncco3)c3cc(C#N)ccc32)cc1 (single isomer, unassigned) [Example 149]"
3,< 10 nM,"COc1ccc(S(=O)(=O)N2C(=O)C(c3cc(CN4CCCC4)ccc3OC)(N3CCC[C@H]3c3ncco3)c3cc(Cl)ccc32)cc1 (stereo partly drawn) [Example 13, 5-Chloro-1-(4-methoxybenzenesulfonyl)-3-(2-methoxy-5-pyrrolidin-1-ylmethylphenyl)-3-((S)-2-oxazol-2-yl-pyrrolidin-1-yl)-1,3-dihydroindol-2-one]"
4,< 10 nM,"COc1ccc(S(=O)(=O)N2C(=O)C(c3cc(CN4CCCCC4)ccc3OC)(N3CCC[C@H]3c3ncco3)c3cc(Cl)ccc32)cc1 (stereo partly drawn) [Example 14, 5-Chloro-1-(4-methoxybenzenesulfonyl)-3-(2-methoxy-5-piperidin-1-ylmethylphenyl)-3-((S)-2-oxazol-2-yl-pyrrolidin-1-yl)-1,3-dihydroindol-2-one]"
5,10 to 100 nM,"COc1ccc(S(=O)(=O)N2C(=O)C(c3ccc(CO)cc3OC)(N3CCC[C@H]3c3ncco3)c3cc(Cl)ccc32)cc1 (stereo partly drawn) [Example 15, 5-Chloro-3-(4-hydroxymethyl-2-methoxyphenyl)-1-(4-methoxybenzenesulfonyl)-3-((S)-2-oxazol-2-yl-pyrrolidin-1-yl)-1,3-dihydroindol-2-one]"
6,< 10 nM,"CNCc1ccc(C2(N3CCC[C@H]3c3ncco3)C(=O)N(S(=O)(=O)c3ccc(OC)cc3)c3ccc(Cl)cc32)c(OC)c1 (stereo partly drawn) [Example 16, 5-Chloro-1-(4-methoxybenzenesulfonyl)-3-(2-methoxy-4-methylaminomethylphenyl)-3-((S)-2-oxazol-2-yl-pyrrolidin-1-yl)-1,3-dihydroindol-2-one]"
7,< 10 nM,"COc1ccc(S(=O)(=O)N2C(=O)C(c3ccc(CN(C)C)cc3OC)(N3CCC[C@H]3c3ncco3)c3cc(Cl)ccc32)cc1 (stereo partly drawn) [Example 17, 5-Chloro-3-(4-dimethylaminomethyl-2-methoxyphenyl)-1-(4-methoxybenzenesulfonyl)-3-((S)-2-oxazol-2-yl-pyrrolidin-1-yl)-1,3-dihydroindol-2-one]"
8,< 10 nM,"CCN(C)Cc1ccc(C2(N3CCC[C@H]3c3ncco3)C(=O)N(S(=O)(=O)c3ccc(OC)cc3)c3ccc(Cl)cc32)c(OC)c1 (stereo partly drawn) [Example 18, 5-Chloro-3-{4-[(ethylmethylamino)methyl]-2-methoxyphenyl}-1-(4-methoxybenzenesulfonyl)-3-((S)-2-oxazol-2-yl-pyrrolidin-1-yl)-1,3-dihydroindol-2-one]"
